According to patent publication US20260240820A1, “METHOD FOR CONTROLLING MEMBRANE POTENTIAL-DEPENDENT ION CHANNEL THROUGH TYPE I TASTE RECEPTORS (T1RS)” (ION CHAT RESEARCH CORPORATE, priority 2022, published 2026):
“And” between values parts separate entries of the source, which are not always exact repeats. Equal entries are not always repeated. “Also recorded” adds a separate entry of the source. Where two headings read alike, the source gives them in different places.

Key:
Nav1.6 [1] = test: Patch-clamp recording of VGSC current in HEK (Nav1.6) cells; type: cell-based, human; conditions: HEK Nav1.6, prepulse −80 mV; read-out: IC50 (VGSC inhibition)
VGSC = test: Patch-clamp recording of VGSC current, cell type not specified or several cell types (summary statements); type: cell-based, human; conditions: for IC50: read-out: IC50 for inhibition of VGSC; for Enhancement of VGSC current at high(er) concentration: high concentration (desensitization)
SH-SY5Y cells [2] = test: Cell morphology observation, SH-SY5Y cells; type: cell-based, human; conditions: 120 μM; undifferentiated SH-SY5Y cells
Nav1.5 = test: Patch-clamp (voltage clamp) recording of VGSC current in HEK cells stably expressing Nav1.5; conditions: for IC50: read-out: IC50 (VGSC inhibition)
[3] = tested on: endogenous T1R GPCR of HEK cells; test: Intracellular calcium (Cal-520) in HEK cells stably expressing Nav1.1 with endogenous T1R GPCR; type: cell-based, human; conditions: 10 nM then 20 nM for Aβ1-40 and Aβ1-42
Method: Specifically, experiments were conducted as follows using HEK cells stably expressing Nav1.1 (FIG. 45). The calcium-sensitive reagent (Cal-520, AAT Bioquest) was incubated at 37° C. for 60 minutes, followed by incubation at room temperature for 30 minutes, and then changes in intracellular calcium were measured using a fluorescence microscope. […] Initially, 10 nM, followed by 20 nM of Aβ1-40 was applied after 5 minutes (arrow). […] A total of 6 cell groups from two independent experiments were measured, averaged by the maximum fluorescence response value, and the mean and standard error (stderr) were calculated and plotted. […] 10 nM, followed by 20 nM of Aβ1-42 was applied after 5 minutes (arrow). […] A total of 12 cell groups from two independent experiments were measured, averaged by the minimum fluorescence response value, and the mean and standard error (stderr) were calculated and plotted. Similar to the experimental results using the patch-clamp method when Aβ peptide was applied to Nav1.5, it was confirmed from intracellular calcium measurements that the effects of Aβ1-40 and Aβ1-42 were different.

HEK Nav1.5 cells = test: GFP-Tubulin / GFP-Actin cytoskeleton observation in HEK Nav1.5 cells; type: cell-based, human; conditions: MSG 5 mM
From the text: To observe the impact of cinacalcet and Aβ1-42 peptide on microfilament (actin) fiber structures, we labeled cells with GFP-Actin (FIG. 34). […] This experimental approach, using GFP-Tubulin, GFP-Actin, or other fluorescent proteins to label microtubules and microfilaments, can be used to screen compounds that regulate the activity of ion channels and neuronal function-controlling proteins. Additionally, simultaneous labeling of tubulin and actin can be achieved using fluorescent antibodies or phalloidin after cell fixation.

[4] = tested on: VGSC of SH-SY5Y cells (Nav1.7, Nav1.2, Nav1.3); test: Patch-clamp recording of VGSC current in differentiated SH-SY5Y cells; type: cell-based, human; conditions: 1-6 μM (2 μM in FIG. 4); listed as Aβ25-35 peptide
From the text: Furthermore, the inventors focused on the relationship between taste receptors, particularly the sweet or umami receptors containing the T1R3 subunit, which are widely expressed in the brain and nervous system, including the hippocampus and cortex. They used human neuroblastoma cells (SH-SY5Y) that functionally express Nav1.2, Nav1.3, and Nav1.7 (as reported in non-patent literature 8), as well as HEK cells stably expressing Nav1.5 (with endogenous expression of T1R1, T1R2, and T1R3). They observed the effects of taste stimuli on sodium channel activation. By reducing the expression of T1R1 and T1R3 genes using silencing vectors, they confirmed that the effects on sodium channel currents induced by taste stimuli act through taste receptor GPCRs.
The SH-SY5Y cell culture medium was prepared by mixing DMEM (Sigma-Aldrich) and F-12 (Sigma-Aldrich) in equal proportions. To induce neuronal-like differentiation, the medium contained 1% FBS (BioWest), 5% 40 mM L-Glutamine (Fuji Film), and 1% MEM non-essential amino acids (Wako Pure Chemical Industries). During differentiation, SH-SY5Y cells were cultured for at least 5 days with the addition of 10 μM/ml retinoic acid (Fuji Film). In this document, “SH-SY5Y cells” refer to the SH-SY5Y cell line differentiated into neuronal-like cells.

Nav1.1 = test: Patch-clamp recording of VGSC current in HEK (Nav1.1) cells; type: cell-based, human
From the text: The cells used in the previous (18-1) experiment were cardiac-type VGSC cells. In this experiment, HEK (Nav1.1) and HEK (Nav1.6) cells, which are considered neuronal VGSC cells, were created. The effects of four peptides—Aβ25-35, Aβ1-38, Aβ1-40, and Aβ1-42—were examined using the same experimental protocol as in (18-1).

Nav1.6 [5] = test: Patch-clamp recording of VGSC current in HEK (Nav1.6) cells; type: cell-based, human
From the text: The cells used in the previous (18-1) experiment were cardiac-type VGSC cells. In this experiment, HEK (Nav1.1) and HEK (Nav1.6) cells, which are considered neuronal VGSC cells, were created. The effects of four peptides—Aβ25-35, Aβ1-38, Aβ1-40, and Aβ1-42—were examined using the same experimental protocol as in (18-1). […]

[6] = tested on: Nav1.5 in T1R3-silenced HEK cells; test: VGSC current in HEK Nav1.5 cells with silenced T1R3; type: cell-based, human
From the text: The miRNAs Oligo (Thermofisher) used for silencing were annealed to form double-stranded DNA, which was then linked to the miR RNAi Expression Vector using T4 DNA ligase to create the knockdown vector. Specifically, the procedure followed the miR RNAi Expression Vector Kit manual (BLOCK-i™ Pol II miR RNAi Expression Vector Kit with EmGFP (Catalog number: K493600)).
Since Aβ25-35 peptide produced similar effects (enhancing VGSC activity, lowering the excitability threshold) as glutamine, it was considered that Aβ25-35 peptide might also act on T1R2/T1R3 receptors like glutamine. Therefore, in this implementation example, we used HEK-Nav1.5 cells with silenced T1R3 and compared the effect of Aβ25-35 peptide on VGSC with that in control HEK-Nav1.5 cells.
To strengthen these findings, we conducted similar experiments using HEK Nav1.5 cells in which T1R3 expression was silenced (FIG. 22). We measured VGSC currents in T1R3-silenced HEK Nav1.5 cells, applying stimuli every 8 seconds.

SH-SY5Y cells [7] = test: Action potentials of differentiated SH-SY5Y cells (current clamp, NanoCharge method); type: cell-based, human; conditions: listed as Aβ25-35 peptide
Method: Next, using the current-clamp mode, we applied current stimulation and recorded action potentials from differentiated SH-SY5Y cells (FIG. 5, from the lower to the upper part of the figure, rectangular wave current stimulation was applied. The current strengths were 6, 8, 10, and 12 pA from the bottom). Before the application of Aβ25-35 peptide, action potentials were not induced at stimulation currents of 6 pA and 8 pA, but action potentials were recorded at stronger stimulation currents (10 pA and 12 pA).
By using magnetic conductive nanoparticles as intracellular electrodes for measuring the neuronal action potentials of differentiated SH-SY5Y cells, and combining this with a capacitive potential detection device to measure changes in intracellular potentials, the spontaneous action potentials of these cells were measured. Specifically, 6.25 nM of the T1R3 agonist Aβ25-35 peptide was added to 400 μl of SH-SY5Y cell culture medium, and the spontaneous action potentials before and after the addition of Aβ25-35 peptide were measured to observe the changes.
This membrane potential recording method focuses on the magnetic conductive nanoparticles penetrating the cell membrane, the cover glass on which the cells are seeded, and the electrode placed below the cover glass forming a capacitor. The charge (Q) charged to this capacitor is recorded as the membrane potential in terms of charge rather than voltage changes. Since the charge (Q) is obtained from Q=CV, where C is the capacitance and V is the potential, the charge changes measured here are influenced by the capacitor (C) (FIG. 43).

Aspartame
IC50 (Nav1.6 [1]): 17 µM | Effects on VGSCs (VGSC): Inhibition of VGSCs | Inhibition of VGSC (VGSC; 50 μM): > 90%. Inhibition is due to a parallel shift | IC50 (VGSC; listed as aspartame): 15 to 17 µM and < 17 µM | IC50 (VGSC): < 50 µM | Change in cell morphology (SH-SY5Y cells [2]): contracted cell morphology; also recorded: cell contraction | IC50 (Nav1.5; prepulse −70 mV): 15.3 µM | IC50 (Nav1.5; prepulse −100 mV): 49.7 µM

GSNKGAIIGLM [Aβ25-35]
Change in intracellular calcium [3]: an increase in intracellular calcium was observed | Microtubule fibrous structure (GFP-Tubulin) (HEK Nav1.5 cells): disappearance of microtubule-like structures | Effect on VGSC inward current [4]: enhancement of transient downward VGSC current; also recorded: enhancement of VGSC inward current | Effect on VGSC current (Nav1.1): VGSC enhancement | Effects on VGSCs (VGSC): Enhancement of VGSC | Effect on VGSC current in the presence of colchicine (VGSC; 12.5 nM, colchicine 2.25 μM): inhibits Aβ25-35-induced enhancement; also recorded: no further enhancement of VGSC current was observed | Effect on VGSC current (VGSC; 125 nM to 2 μM): Ab25-35 (125 nM to 2 μM) enhances | Effect on VGSC current in the presence of Latrunculin A (VGSC; 12.6 μM LatA, Aβ25-35 printed 12.5 μM): VGSC amplification; also recorded: doubled | Enhancement of VGSC current at high(er) concentration (VGSC): VGSC current but not at higher | Enhancement of VGSC current at high(er) concentration (VGSC; listed as Ab25-35): Ab25-35 is suppressed | Effect on VGSC current (Nav1.6 [5]): VGSC enhancement | Effect on VGSC in T1R3-silenced cells [6]: is lost | Change in VGSC ([6]; 2 μM): no change in VGSC was observed | Effect on VGSC in T1R3-silenced cells ([6]; listed as ab25-35): T1R3 silencing nullifies ab25-35's | Frequency of spontaneous action potentials (SH-SY5Y cells [7]; 6.25 nM, NanoCharge method): an increase in spontaneous action potential frequency; also recorded: an increase in the frequency of spontaneous action potentials | Excitability / action potential threshold (SH-SY5Y cells [7]; current clamp, 6-12 pA stimulation): increased the excitability of SH-SY5Y cells; also recorded: threshold for generating action potentials was lowered | Cell membrane capacitance and VGSC current (Nav1.5; 12.5 nM, perforated patch-clamp): increase in cell membrane capacitance and VGSC current | Cell membrane capacitance and VGSC currents (Nav1.5; 120 nM, perforated patch-clamp): increased | Cell membrane capacitance and VGSC currents (Nav1.5; 240 nM, perforated patch-clamp): decreased to control levels | Effect on VGSC current (Nav1.5; 1 μM, control HEK Nav1.5 cells): enhancing effect; also recorded: enhancement effect | Increase in VGSC current amplitude (Nav1.5; control without anti-T1R3 antibody pre-treatment): 10-20% | VGSC current density (pA/pF) (Nav1.5; low concentration, perforated patch-clamp): current density of VGSC increased

Aβ1-38: amyloid β peptide (Peptide Institute), Sequence No. 2
Change in intracellular calcium [3]: an increase in intracellular calcium was observed | Effect on VGSC current (Nav1.1): VGSC enhancement | Effect on VGSC current (Nav1.6 [5]): VGSC enhancement | Effect on VGSC in T1R3-silenced cells [6]: is lost | Effect on VGSC inactivation (Nav1.5): delayed inactivation effect | Shift of steady-state inactivation (S-S) curve of VGSC (Nav1.5): shifted to the right; also recorded: shifting to the depolarizing side | VGSC current from prepulse/holding potential −80 mV (Nav1.5): enhancing currents; also recorded: significantly amplified | VGSC current from prepulse/holding potential −120 mV (Nav1.5): decreased; also recorded: slightly decreased
